Measurements from EPA's ToxValDB 9.5.
“And” between values parts separate entries of the source, which are not always exact repeats. Equal entries are not always repeated.

Assays:
Mus musculus = settings: oral
Rattus norvegicus = settings: short-term, duration: 28 days, oral, gavage, F, Sprague-Dawley
[1] = developmental, duration: 17 days, gavage, F, CD1, Developmental: Delayed postnatal development [eye opening, preputial separation and vaginal opening] and decreased body weight gain …
[2] = developmental, duration: 18 days, gavage, F, Developmental: Decreased number of live births (36 and 31%) and pup survival at 1.1 and 2.0 mg/kg/day, but not […] / decreased number of …
[3] = short-term, duration: 14 days, gavage, M, BALB/c, Body Weight: ~25% decrease in body weight + Hepatic: Increases in liver weight (~160%) and increases in hepatic triglyceride (~66%) and …
[4] = subchronic, duration: 90 days, gavage, M, Reproductive: Decreased sperm motility, viability, and number / degenerative changes in seminiferous tubules / decreased litter size

Question: For `O=C(O)C(F)(F)C(F)(F)C(F)(F)C(F)(F)C(F)(F)C(F)(F)C(F)(F)C(F)(F)F` [Perfluorononanoic acid], which NOAEL (Mus musculus; developmental, duration: 16 days, gavage, M/F, CD1, developmental) is on record?
Answer: 1 mg/kg-day

Question: And the LOAEL (Mus musculus; [1])?
Answer: 3 mg/kg-day and 5 mg/kg-day

Question: And the NOAEL (Mus musculus; [1])?
Answer: 1 mg/kg-day

Question: And the NOAEL (Mus musculus; developmental, duration: 18 days, gavage, F, Body Weight: No alterations in maternal body weight or gestational weight gain + Developmental: No alterations in the number of live pups …)?
Answer: 2 mg/kg-day

Question: And the LOAEL (Mus musculus; [2])?
Answer: 1.1 mg/kg-day

Question: And the NOAEL (Mus musculus; [2])?
Answer: 0.83 mg/kg-day

Question: And the LOAEL (Mus musculus; reproduction developmental, duration: 17 days, gavage, F, CD1, Body Weight: 43% maternal weight loss at GD 13)?
Answer: 10 mg/kg-day

Question: What about the NOAEL (Mus musculus; reproduction developmental, duration: 17 days, gavage, F, CD1, Hepatic: Increases in absolute and relative liver weights in dams on GD 17 and on post-weaning day 28 at ?1 mg/kg/day) of the same molecule?
Answer: 10 mg/kg-day

Question: And the NOAEL (Mus musculus; reproduction developmental, duration: 18 days, gavage, F, Body Weight: No alterations in maternal body weight or gestational weight gain + Hepatic: Increase in dam liver weight at ?0.83 mg/kg/day)?
Answer: 2 mg/kg-day

Question: And the NOAEL (Mus musculus; short-term, duration: 7 days, gavage, M, Hepatic: Hepatocellular hypertrophy, steatosis, and increased hepatic triglyceride levels)?
Answer: 10 mg/kg-day

Question: What about the LOAEL (Mus musculus; short-term, duration: 14 days, diet, M/F, CD1, Death: 100% mortality before day 14) of the same molecule?
Answer: 54 mg/kg-day

Question: What about the NOAEL (Mus musculus; short-term, duration: 14 days, diet, M/F, CD1, Hepatic: 50-70% increase in absolute liver weight at ?0.5 mg/kg/day) of the same molecule?
Answer: 5.3 mg/kg-day

Question: And the LOAEL (Mus musculus; [3])?
Answer: 5 mg/kg-day

Question: And the NOAEL (Mus musculus; [3])?
Answer: 1 mg/kg-day

Question: What about the LOAEL (Mus musculus; short-term, duration: 14 days, gavage, M, BALB/c, Immunotoxicological: Decreases in the percentages of F4/80+ and CD49b+ cells in the spleen / no alteration in the response of splenic …) of the same molecule?
Answer: 1 mg/kg-day

Question: What about the NOAEL (Mus musculus; subchronic, duration: 90 days, gavage, M, Hepatic: 33% decrease in serum cholesterol) of the same molecule?
Answer: 0.5 mg/kg-day

Question: And the LOAEL (Mus musculus; [4])?
Answer: 0.5 mg/kg-day

Question: What about the NOAEL (Mus musculus; [4]) of the same molecule?
Answer: 0.2 mg/kg-day

Question: What about the LOEL (Rattus norvegicus; Clinical chemistry_Alanine aminotransferase) of the same molecule?
Answer: 3.12 mg/kg-day

Question: And the LOEL (Rattus norvegicus; Clinical chemistry_Albumin)?
Answer: 1.56 mg/kg-day

Question: And the LOEL (Rattus norvegicus; Clinical chemistry_Albumin/globulin ratio)?
Answer: 1.56 mg/kg-day

Question: And the LOEL (Rattus norvegicus; Clinical chemistry_Alkaline phosphatase)?
Answer: 3.12 mg/kg-day

Question: And the NOEL (Rattus norvegicus; Clinical chemistry_Aspartate aminotransferase)?
Answer: 25 mg/kg-day

Question: What about the NOEL (Rattus norvegicus; Clinical chemistry_Cholesterol) of the same molecule?
Answer: 25 mg/kg-day

Question: And the NOEL (Rattus norvegicus; Clinical chemistry_Creatinine kinase)?
Answer: 25 mg/kg-day

Question: And the LOEL (Rattus norvegicus; Clinical chemistry_Direct bilirubin)?
Answer: 6.25 mg/kg-day

Question: What about the LOEL (Rattus norvegicus; Clinical chemistry_Free thyroxine) of the same molecule?
Answer: 3.12 mg/kg-day

Question: What about the LOEL (Rattus norvegicus; Clinical chemistry_Globulin) of the same molecule?
Answer: 1.56 mg/kg-day

Question: And the NOEL (Rattus norvegicus; Clinical chemistry_Indirect bilirubin)?
Answer: 25 mg/kg-day

Question: What about the LOEL (Rattus norvegicus; Clinical chemistry_Sorbitol dehydrogenase) of the same molecule?
Answer: 1.56 mg/kg-day

Question: What about the LOEL (Rattus norvegicus; Clinical chemistry_Testosterone) of the same molecule?
Answer: 1.56 mg/kg-day

Question: And the NOEL (Rattus norvegicus; Clinical chemistry_Thyroid stimulating hormone)?
Answer: 25 mg/kg-day

Question: What about the LOEL (Rattus norvegicus; Clinical chemistry_Total bile acids) of the same molecule?
Answer: 3.12 mg/kg-day

Question: And the NOEL (Rattus norvegicus; Clinical chemistry_Total bilirubin)?
Answer: 25 mg/kg-day

Question: And the LOEL (Rattus norvegicus; Clinical chemistry_Total protein)?
Answer: 1.56 mg/kg-day

Question: And the LOEL (Rattus norvegicus; Clinical chemistry_Total thyroxine)?
Answer: 3.12 mg/kg-day

Question: What about the NOEL (Rattus norvegicus; Clinical chemistry_Total triiodothyronine) of the same molecule?
Answer: 25 mg/kg-day

Question: What about the NOEL (Rattus norvegicus; Clinical chemistry_Triglycerides) of the same molecule?
Answer: 25 mg/kg-day

Question: What about the LOEL (Rattus norvegicus; Gene expression_Acox1) of the same molecule?
Answer: 1.56 mg/kg-day

Question: And the LOEL (Rattus norvegicus; Gene expression_Cyp2b1)?
Answer: 1.56 mg/kg-day

Question: What about the LOEL (Rattus norvegicus; Gene expression_Cyp2b2) of the same molecule?
Answer: 1.56 mg/kg-day

Question: And the LOEL (Rattus norvegicus; Gene expression_Cyp4a1)?
Answer: 1.56 mg/kg-day

Question: What about the NOEL (Rattus norvegicus; Hematology_Erythrocytes) of the same molecule?
Answer: 25 mg/kg-day

Question: And the NOEL (Rattus norvegicus; Hematology_Hematocrit)?
Answer: 25 mg/kg-day

Question: What about the NOEL (Rattus norvegicus; Hematology_Hemoglobin) of the same molecule?
Answer: 25 mg/kg-day

Question: What about the NOEL (Rattus norvegicus; Hematology_Mean corpuscular hemoglobin concentration) of the same molecule?
Answer: 25 mg/kg-day

Question: And the NOEL (Rattus norvegicus; Hematology_Mean corpuscular volume)?
Answer: 25 mg/kg-day

Question: And the NOEL (Rattus norvegicus; Hematology_Platelets)?
Answer: 25 mg/kg-day

Question: What about the NOEL (Rattus norvegicus; Hematology_Reticulocytes) of the same molecule?
Answer: 25 mg/kg-day

Question: What about the LOEL (Rattus norvegicus; Nonneoplastic effects_Bone marrow - Hypocellularity) of the same molecule?
Answer: 12.5 mg/kg-day

Question: And the LOEL (Rattus norvegicus; Nonneoplastic effects_Forestomach - Epithelium, hyperplasia)?
Answer: 12.5 mg/kg-day

Question: What about the NOEL (Rattus norvegicus; Nonneoplastic effects_Kidney - Nephropathy, chronic progressive) of the same molecule?
Answer: 25 mg/kg-day

Question: What about the LOEL (Rattus norvegicus; Nonneoplastic effects_Liver - Hepatocyte, Necrosis) of the same molecule?
Answer: 12.5 mg/kg-day

Question: What about the LOEL (Rattus norvegicus; Nonneoplastic effects_Liver - Hepatocyte, cytoplasmic alteration) of the same molecule?
Answer: 1.56 mg/kg-day

Question: What about the LOEL (Rattus norvegicus; Nonneoplastic effects_Liver - Hepatocyte, hypertrophy) of the same molecule?
Answer: 6.25 mg/kg-day

Question: What about the NOEL (Rattus norvegicus; Nonneoplastic effects_Liver - Hepatocyte, vacuolization cytoplasmic) of the same molecule?
Answer: 25 mg/kg-day

Question: What about the LOEL (Rattus norvegicus; Nonneoplastic effects_Lymph nodes - Mandibular, atrophy) of the same molecule?
Answer: 12.5 mg/kg-day

Question: What about the LOEL (Rattus norvegicus; Nonneoplastic effects_Lymph nodes - Mesenteric, atrophy) of the same molecule?
Answer: 12.5 mg/kg-day

Question: And the LOEL (Rattus norvegicus; Nonneoplastic effects_Nose - Olfactory epithelium, degeneration)?
Answer: 25 mg/kg-day

Question: And the NOEL (Rattus norvegicus; Nonneoplastic effects_Nose - Olfactory epithelium, hyperplasia)?
Answer: 25 mg/kg-day

Question: What about the NOEL (Rattus norvegicus; Nonneoplastic effects_Nose - Olfactory epithelium, inflammation, suppurative) of the same molecule?
Answer: 25 mg/kg-day

Question: What about the NOEL (Rattus norvegicus; Nonneoplastic effects_Nose - Respiratory epithelium, hyperplasia) of the same molecule?
Answer: 25 mg/kg-day

Question: What about the NOEL (Rattus norvegicus; Nonneoplastic effects_Nose - Respiratory epithelium, inflammation, chronic active) of the same molecule?
Answer: 25 mg/kg-day

Question: And the LOEL (Rattus norvegicus; Nonneoplastic effects_Spleen - Atrophy)?
Answer: 12.5 mg/kg-day

Question: What about the NOEL (Rattus norvegicus; Nonneoplastic effects_Spleen - Extramedullary hematopoiesis, increased) of the same molecule?
Answer: 25 mg/kg-day

Question: What about the LOEL (Rattus norvegicus; Nonneoplastic effects_Thymus - Atrophy) of the same molecule?
Answer: 12.5 mg/kg-day

Question: What about the NOEL (Rattus norvegicus; Nonneoplastic effects_Thymus - Lymphocyte, apoptosis) of the same molecule?
Answer: 25 mg/kg-day

Question: And the NOEL (Rattus norvegicus; Nonneoplastic effects_Thyroid gland - Follicular cell hypertrophy)?
Answer: 25 mg/kg-day

Question: What about the LOEL (Rattus norvegicus; Organ weights_Liver - Absolute) of the same molecule?
Answer: 1.56 mg/kg-day

Question: What about the LOEL (Rattus norvegicus; Organ weights_Liver - Relative) of the same molecule?
Answer: 1.56 mg/kg-day

Question: And the NOEL (Rattus norvegicus; Organ weights_R. adrenal gland - Absolute)?
Answer: 25 mg/kg-day

Question: And the NOEL (Rattus norvegicus; Organ weights_R. adrenal gland - Relative)?
Answer: 25 mg/kg-day

Question: What about the LOEL (Rattus norvegicus; Organ weights_R. kidney - Absolute) of the same molecule?
Answer: 1.56 mg/kg-day

Question: And the LOEL (Rattus norvegicus; Organ weights_R. kidney - Relative)?
Answer: 1.56 mg/kg-day

Question: And the LOEL (Rattus norvegicus; Organ weights_Spleen - Absolute)?
Answer: 3.12 mg/kg-day

Question: What about the LOEL (Rattus norvegicus; Organ weights_Spleen - Relative) of the same molecule?
Answer: 6.25 mg/kg-day

Question: What about the NOEL (Rattus norvegicus; Organ weights_Thymus - Absolute) of the same molecule?
Answer: 25 mg/kg-day
